Data on 8 molecules can be found in PubChem BioAssay (NCI).

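Cells were grown in 96-well plates and exposed to each compound for 48 hours at five concentrations; endpoints were interpolated linearly between bracketing concentrations, or set to the highest concentration if not reached. The concentration for 50% growth inhibition is given as GI50. TGI denotes the concentration required for complete inhibition of growth.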

Test systems include SK-MEL-5 melanoma; HCT-116 colon; CCRF-CEM leukemia; U251 CNS; MDA-MB-435; SK-MEL-28 melanoma; SNB-19 CNS; SF-295 CNS; MOLT-4 leukemia; SF-539 CNS.
What all share (experiment): growth of human tumour cells (NCI), 48 h

In the case of `O=C(Nc1ccccc1)c1nn(-c2cc(S(=O)(=O)O)c([N+](=O)[O-])cc2Cl)[n+](-c2cc(S(=O)(=O)[O-])c([N+](=O)[O-])cc2Cl)n1`, the TGI with SK-MEL-5 melanoma, in the test on HCT-116 colon, in the test on CCRF-CEM leukemia, in the test with U251 CNS, with MDA-MB-435 and with SK-MEL-28 melanoma was over 100 µM in each case. The TGI in the test with SNB-19 CNS, in the test with SF-295 CNS, in the test with MOLT-4 leukemia and in the test with SF-539 CNS was over 100 µM throughout.

For `O=c1cc(-c2ccccc2)oc2cc(O)c(O)c(O)c12`, the GI50 with SK-MEL-5 melanoma was 9.47 µM; in the test on HCT-116 colon, 11.1 µM; in the test with CCRF-CEM leukemia, 2.39 µM; with U251 CNS, 11.1 µM; with MDA-MB-435 it was 10.2 µM; with SK-MEL-28 melanoma, 92.3 µM. Further, the GI50 in the test with SNB-19 CNS was 30 µM; in the test with SF-295 CNS, 11.7 µM; in the test on MOLT-4 leukemia it was 53.7 µM; with SF-539 CNS, 8.4 µM. Further, the TGI in the test with SK-MEL-5 melanoma was 45.3 µM; with HCT-116 colon it was 31.8 µM; in the test on CCRF-CEM leukemia, over 100 µM; in the test on U251 CNS, over 100 µM; in the test on MDA-MB-435, 39.8 µM; in the test on SK-MEL-28 melanoma it was over 100 µM. Further, the TGI in the test on SNB-19 CNS is over 100 µM; in the test on SF-295 CNS it was 46.4 µM; in the test on MOLT-4 leukemia, over 100 µM; with SF-539 CNS it was 36.8 µM.

On to `N=C(N)c1ccc(OCCOCCOc2ccc(C(=N)N)cc2)cc1`, for which the GI50 in the test on SK-MEL-5 melanoma is 33.1 µM; with HCT-116 colon, over 100 µM; in the test with CCRF-CEM leukemia it was 1 µM; in the test with U251 CNS, 77.6 µM; in the test on MDA-MB-435, 84.8 µM; in the test on SK-MEL-28 melanoma, 77 µM. Besides, the GI50 was 80.6 µM with SNB-19 CNS, 44.7 µM in the test with SF-295 CNS, over 100 µM in the test on MOLT-4 leukemia and 35.3 µM with SF-539 CNS. Moreover, the TGI with SK-MEL-5 melanoma, with HCT-116 colon, in the test on CCRF-CEM leukemia, in the test with U251 CNS, with MDA-MB-435 and with SK-MEL-28 melanoma was over 100 µM throughout. In addition, the TGI in the test on SNB-19 CNS, in the test on SF-295 CNS, with MOLT-4 leukemia and in the test with SF-539 CNS was over 100 µM in each case.

`Cc1cc2cc3cc(C)c(N(C)C)cc3[n+](C)c2cc1N(C)C`: the GI50 in the test on SK-MEL-5 melanoma is 2.1 µM; in the test with HCT-116 colon, 2.55 µM; in the test on CCRF-CEM leukemia, 12.2 µM; in the test on U251 CNS, 2.05 µM; in the test with MDA-MB-435 it was 3.1 µM; with SK-MEL-28 melanoma it was 2.64 µM. Besides, the GI50 in the test with SNB-19 CNS is 4.22 µM; in the test with SF-295 CNS it was 2.53 µM; with MOLT-4 leukemia, 3.58 µM; in the test on SF-539 CNS it was 3.05 µM. For the same molecule, the TGI is 6.96 µM in the test on SK-MEL-5 melanoma; 20.7 µM in the test on HCT-116 colon; over 100 µM in the test on CCRF-CEM leukemia; 21.2 µM in the test with U251 CNS; 14.9 µM with MDA-MB-435; 8.53 µM in the test on SK-MEL-28 melanoma. In addition, the TGI is over 100 µM with SNB-19 CNS, 14 µM in the test with SF-295 CNS, over 100 µM in the test with MOLT-4 leukemia and 12.1 µM in the test on SF-539 CNS.

`CS(=O)(=O)OCC1OC(n2ccc(NC(=O)c3ccccc3)nc2=O)CC1OS(C)(=O)=O` (centres undefined): the TGI in the test with SK-MEL-5 melanoma, in the test on HCT-116 colon, in the test with CCRF-CEM leukemia, with U251 CNS, in the test with MDA-MB-435 and in the test on SK-MEL-28 melanoma was over 100 µM throughout. Moreover, the TGI in the test on SNB-19 CNS, in the test on SF-295 CNS, in the test on MOLT-4 leukemia and in the test on SF-539 CNS was over 100 µM throughout.

Consider `CC/C(=C(/c1ccc(OCCN(C)C)cc1)c1ccc(OC(=O)CCC(=O)c2c(C)[nH]c(/C=C3\N=C(c4ccc[nH]4)C=C3OC)c2C)cc1)c1ccccc1`, for which the GI50 in the test on SK-MEL-5 melanoma was 1.31 µM; in the test on HCT-116 colon, 0.792 µM; in the test on CCRF-CEM leukemia, 0.435 µM; with U251 CNS, 1.46 µM; in the test with MDA-MB-435, 2.56 µM; with SK-MEL-28 melanoma, 2.89 µM. The GI50 in the test on SNB-19 CNS is 5.49 µM; in the test with SF-295 CNS, 2.61 µM; in the test on MOLT-4 leukemia, 0.974 µM; in the test on SF-539 CNS it was 2.59 µM. In addition, the TGI is 2.62 µM with SK-MEL-5 melanoma; 3.26 µM in the test with HCT-116 colon; 6.34 µM in the test with CCRF-CEM leukemia; 6.23 µM with U251 CNS; 10.2 µM in the test with MDA-MB-435; 12.4 µM in the test on SK-MEL-28 melanoma. In addition, the TGI with SNB-19 CNS stood at 21.8 µM; in the test on SF-295 CNS it was 9.06 µM; with MOLT-4 leukemia it was 4.25 µM; with SF-539 CNS, 9.26 µM.

As for `O=S(=O)(Cc1ccc(Cl)cc1Cl)c1ccc(Cl)cc1`, the GI50 in the test on SK-MEL-5 melanoma is 0.437 µM; in the test with HCT-116 colon, 0.471 µM; in the test with CCRF-CEM leukemia it was 0.505 µM; in the test on U251 CNS, 0.496 µM; in the test with MDA-MB-435 it was 0.13 µM; in the test on SK-MEL-28 melanoma it was 1.97 µM. The GI50 in the test on SNB-19 CNS was 1.38 µM; in the test with SF-295 CNS it was 0.495 µM; in the test on MOLT-4 leukemia it was 1.14 µM; with SF-539 CNS, 0.47 µM. Further, the TGI with SK-MEL-5 melanoma is 24.4 µM; in the test with HCT-116 colon, over 100 µM; in the test with CCRF-CEM leukemia, over 100 µM; in the test with U251 CNS, over 100 µM; with MDA-MB-435 it was 0.671 µM; in the test with SK-MEL-28 melanoma it was over 100 µM. Further, the TGI was over 100 µM with SNB-19 CNS, 10.8 µM with SF-295 CNS, over 100 µM in the test on MOLT-4 leukemia and 3.72 µM with SF-539 CNS.

For the molecule `COc1cc2c3c(n(CCCN(CCN)CCCn4c5c(c6cc(OC)c(OC)cc6c4=O)C(=O)c4cc6c(cc4-5)OCO6)c(=O)c2cc1OC)-c1cc2c(cc1C3=O)OCO2`, the GI50 was 1.04 µM in the test on SK-MEL-5 melanoma; 0.837 µM in the test with HCT-116 colon; 0.116 µM in the test with CCRF-CEM leukemia; 0.354 µM in the test with U251 CNS; 2.22 µM in the test on MDA-MB-435; over 37.1 µM in the test with SK-MEL-28 melanoma. For the same molecule, the GI50 in the test with SNB-19 CNS was 0.741 µM; with SF-295 CNS, 0.36 µM; in the test on MOLT-4 leukemia it was 0.0846 µM; in the test on SF-539 CNS, 0.238 µM. The TGI in the test with SK-MEL-5 melanoma was 3.34 µM; in the test on HCT-116 colon it was 3.25 µM; with CCRF-CEM leukemia it was 0.407 µM; in the test with U251 CNS, 5.99 µM; in the test on MDA-MB-435, 23.2 µM; in the test on SK-MEL-28 melanoma it was over 100 µM. Also, the TGI in the test with SNB-19 CNS is over 100 µM; in the test with SF-295 CNS it was 6.16 µM; in the test on SF-539 CNS it was 0.731 µM.
